System: myotonia induced by anthracene-9-carboxylic acid (9-AC) in Sprague-Dawley rats
Assay: Myotonia induction model by drug (9-AC) treatment, righting reflex test
Assay type: in vivo, rat
Set-up: Average Righting reflex time (TRR): unit not given here
Conditions: for Average Righting reflex time (TRR): 9-AC given 20 minutes later
Text: The efficacy for myotonia of the compounds of the above Formula 1 can be confirmed by the use of known models. For example, the efficacy of the compounds of the above Formula 1 may be evaluated in a myotonia model caused by anthracene-9-carboxylic acid (9-AC). Anthracene-9-carboxylic acid can cause myotonic conditions by blocking the chloride channel-1 of muscle cells. Myotonic conditions are induced by intraperitoneal injection once to experimental animals (rats), and can be evaluated by measuring the righting reflex time. Righting reflex is a reflex behavior in which the animal's body returns from an abnormal position to a normal position, and the degree of myotonia can be evaluated by measurement of righting reflex behavior due to abnormality of muscle tension/relaxation after 9-AC treatment. Specifically, the degree of spasticity is evaluated by measuring the time that it takes for the four feet of the experimental animal to land normally when the experimental animal is turned upside down and the posture is straightened (time of righting reflex, TRR).
In the experimental animal model of myotonia induction by drug (9-AC) treatment, it was reported that the time to return to normal posture after righting reflex was delayed when measuring the rat's spasticity conditions using righting reflex (Desaphy et al., 2013, Neuropharmacology, 65: 21-27).
As an experimental model, Sprague-Dawley rats (350-400 g, 10 weeks old, a total of 36 males) were used (Orient Bio Inc.). The drug anthracene-9-carboxylic acid (9-AC) used to induce myotonia is a drug that inhibits chloride channel-1 of skeletal muscle cells and induces hyperexcitation of muscle cells. The control group (30% PEG300) or test compound was intraperitoneally administered to the rat once in each dose (15, 20 mg/kg). Test compounds were diluted in 30% PEG300 solution to a final dose of 5 ml/kg. After 20 minutes of administration of control group or test compound, 0.3% NaHCO3 solution containing 6 mg/ml of 9-AC was intraperitoneally administered by 10 ml/kg. After administration of 9-AC, righting reflex tests were performed at 30 minutes and 1 hour, respectively, and the time to return to normal posture (time of righting reflex, TRR) was measured.
Statistical analysis was used for the one-way ANOVA (1-way ANOVA) and Tukey's multiple comparison test, and outliers were excluded through the ROUT outlier analysis test (Q=1%) (in the 30-minute test, excluding each one in the control group and the 20 mg/kg treatment group; in the 1-hour test, excluding one in the 20 mg/kg treatment group). The results were derived from three repeated experiments.

NC(=O)O[C@@H](Cn1ncnn1)c1ccccc1Cl [Test compound, carbamic acid (R)-1-(2-chlorophenyl)-2-tetrazol-2-yl-ethyl ester]
Average Righting reflex time (TRR) (15 mg/kg intraperitoneal, measured 30 minutes after 9-AC, n = 9): 2.282 ± 0.304 | Average Righting reflex time (TRR) (15 mg/kg intraperitoneal, measured 1 hour after 9-AC, n = 9): 4.978 ± 0.944 | Average Righting reflex time (TRR) (20 mg/kg intraperitoneal, measured 30 minutes after 9-AC, n = 8): 1.85 ± 0.266 | Average Righting reflex time (TRR) (20 mg/kg intraperitoneal, measured 1 hour after 9-AC, n = 8): 2.515 ± 0.328 | Time to return to normal posture compared to the control group (statistical significance) (20 mg/kg, at both 30 minutes and 1 hour after 9-AC, P<0.05, one-way ANOVA and Tukey's test): significant time reduction effect | Time to return to normal posture compared to the control group in righting reflex test (15 and 20 mg/kg, 30 minutes and 1 hour after spasticity was induced): decrease in time to return to normal posture
